Experimental data as given in patent US20020015941A1, “Method for treatment of neurodegenerative diseases” (The General Hospital Corporation, priority 2000, published 2002).
Like-named read-outs stand apart in the source and are kept apart here.

Assays:
[1] = system: capacitative Ca2+ entry (CCE) in SY5Y cells; format: cell-based, human
[2] = system: capacitative calcium entry (CCE); details: literature; cited from earlier work
[3] = system: IP3-elicited release of Ca2+ from internal stores; details: literature; cited from earlier work
[4] = system: secreted APP-α in 293 cells stably expressing human APP; assay: Secreted APPs-α by immunoprecipitation (22C11) and blot (6E10); format: cell-based; details: SKF96365 treatment, 12 hour
[5] = system: Aβ42/Aβtotal in CHO cells stably overexpressing human APP; assay: Aβ sandwich ELISA, CHO cells stably overexpressing human APP; format: cell-based, Chinese hamster; details: CHO-APP, indicated concentrations for 12 hours (FIG. 5C)
[6] = system: voltage-operated Ca2+ channels; details: literature; cited from earlier work
[7] = system: CHO or 293 cells stably expressing human APP
[8] = system: capacitative calcium entry (CCE) in CHO cells; assay: CCE by ratiometric Ca2+ imaging in CHO cells; format: cell-based, Chinese hamster
[9] = system: ICRAC channels in wild-type PS1 CHO cells; assay: ICRAC by whole-cell patch clamp in stable CHO cells; format: cell-based, Chinese hamster; details: wild-type PS1 CHO cells pretreated with 10 μM SKF96365 for 30 min
[10] = system: total Aβ and Aβ42 in D257A-PS1 CHO cells; assay: Aβ generation in CHO cells stably expressing APP and D257A-PS1; format: cell-based, Chinese hamster
CHO and CHO-APP cells = details: Aβ42 pre-treatment
Protocol: The Aβ42 peptides were obtained from Bachem and dissolved in PBS at 1 mg/ml directly before use.

C=C1[C@@H](C)[C@H]2[C@H](Cc3ccccc3)NC(=O)[C@]23[C@H](OC(C)=O)/C=C/[C@@](C)(O)C(=O)[C@@H](C)C/C=C/[C@H]3[C@@H]1O [CytoD, Cytochalasin D]
Ca2+ influx in wild-type PS1 or M146L-PS1 cells [1]: essentially no effect | effect on CCE [2]: no effect | IP3-elicited release of Ca2+ from internal stores [3]: impairs

COc1ccc(CCCOC(Cn2ccnc2)c2ccc(OC)cc2)cc1 (centres unmarked) [SKF96365]
secreted APP-α levels [4]: did not alter | Ca2+ influx (CCE) after pretreatment ([1]; 100 μM SKF96365 1 hr, 100 nM CalyA 20 min, nifedipine 1 μM, ω-conotoxin GVIA 2 μM, prior to induction of CCE): blocked | Aβ42-promoting effect versus concentration [5]: dose-dependent | effect on voltage-operated Ca2+ channels [6]: minor inhibitory effect | cell viability [7]: did not alter | degree of CCE reduction in D257A-PS1 cells compared to wild-type PS1 cells ([8]; 50 μM SKF96365, 12 hrs): much less | ICRAC (peak current density) [9]: virtually eliminated | generation of Aβ42 in D257A-PS1 cells ([10]; 50 μM SKF96365): did not restore | generation of total Aβ in D257A-PS1 cells ([10]; 50 μM SKF96365): did not restore | relative Aβ42 levels as share of total Aβ levels in D257A cells ([10]; following treatment with SKF96365 (50 μM)): greater than 90%

Aβ42: 42-amino acid version of amyloid β-peptide, obtained from Bachem
CCE response after Aβ42 pre-treatment ([8]; CHO and CHO-APP cells pre-incubated with 20 PM Aβ42 for 3 hours): no detectable effect | cell viability (CHO and CHO-APP cells): not affected

Calyculin A
Ca2+ influx (CCE) after pretreatment [1]: blocked

ω-conotoxin GVIA
Ca2+ influx (CCE) after pretreatment [1]: virtually no effect
